Measured values published in ChEMBL document CHEMBL6109147, “Discovery of Potent STING Inhibitors Bearing a Difluorobenzodioxol Structural Motif as Potent Anti-Inflammatory Agents” (J Med Chem, 2025).
Calls of active or inactive are those of the source. The calls are words filed in the database; no cut-off is given here.

How the values were obtained:
[1] = biological target: T1, Stimulator of interferon genes protein (Mus musculus, UniProt Q3TBT3); assay: Inhibition of mouse STING in mouse RAW cells assessed as secreted luciferase reporter of interferon stimulated gene (ISG) measured after 24 hrs incubation by QUANTI-Luc detection assay; assay type: cell-based
T1 sequence (Q3TBT3 whole entry): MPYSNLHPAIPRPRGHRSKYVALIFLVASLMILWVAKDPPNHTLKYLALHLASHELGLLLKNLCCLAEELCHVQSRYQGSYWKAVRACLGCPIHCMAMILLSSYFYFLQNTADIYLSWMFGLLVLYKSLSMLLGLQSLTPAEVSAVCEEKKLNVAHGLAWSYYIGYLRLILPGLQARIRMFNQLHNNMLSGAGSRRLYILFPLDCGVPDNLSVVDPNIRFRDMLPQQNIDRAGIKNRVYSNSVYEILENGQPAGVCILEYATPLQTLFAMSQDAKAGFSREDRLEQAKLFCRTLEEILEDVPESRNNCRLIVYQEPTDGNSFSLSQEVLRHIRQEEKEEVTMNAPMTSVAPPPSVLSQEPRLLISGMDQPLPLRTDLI

[2] = Metabolic stability in rat liver microsomes assessed as half life; assay type: ADME, Microsome
[3] = Metabolic stability in mouse liver microsomes assessed as microsomal intrinsic clearance; assay type: ADME, Microsome; conditions: read-out: CLH
[4] = Metabolic stability in rat liver microsomes assessed as microsomal intrinsic clearance; assay type: ADME, Microsome; conditions: read-out: CLH
[5] = Metabolic stability in human liver microsomes assessed as liver intrinsic clearance; assay type: ADME, Microsome
[6] = biological target: Stimulator of interferon genes protein (Homo sapiens) (UniProt Q86WV6); assay: Binding affinity to Flag-tagged human STING expressed in HEK293T cells assessed as labelling at 0.5 to 4 uM pretreated for 15 mins measured after 1 hr in presence of 1 uM 1-(2,2-difluorobenzo[d][1,3]dioxol-5-yl)-3-(5-ethynyl-1H-indol-3-yl)urea by TAMRA-N3 fluorescent assay; assay type: cell-based; conditions: dose 0.5-4 µM, time 75.0 min
Stimulator of interferon genes protein (Homo sapiens), sequence (Q86WV6 whole entry): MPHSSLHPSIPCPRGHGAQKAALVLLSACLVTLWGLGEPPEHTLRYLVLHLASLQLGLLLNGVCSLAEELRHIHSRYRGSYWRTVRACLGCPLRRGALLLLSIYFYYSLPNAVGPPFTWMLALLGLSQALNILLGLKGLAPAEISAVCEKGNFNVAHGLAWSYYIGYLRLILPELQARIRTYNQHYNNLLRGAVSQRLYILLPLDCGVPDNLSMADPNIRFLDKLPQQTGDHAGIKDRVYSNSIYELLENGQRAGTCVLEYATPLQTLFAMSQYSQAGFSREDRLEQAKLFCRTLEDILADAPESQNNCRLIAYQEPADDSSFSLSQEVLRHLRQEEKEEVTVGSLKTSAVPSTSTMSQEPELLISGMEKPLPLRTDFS

[7] = biological target: Stimulator of interferon genes protein (Homo sapiens) (UniProt Q86WV6); assay: Inhibition of STING in human THP1-Dual cells assessed as inhibition of HT-DNA induced cGAS activation measured after 1 hr incubation followed by stimulated with HT-DNA by Western blotting analysis; assay type: cell-based
[8] = biological target: Stimulator of interferon genes protein (Homo sapiens) (UniProt Q86WV6); assay: Inhibition of STING downstream signalling in human THP1-Dual cells assessed as inhibition of MSA-2 induced IFN-beta mRNA expression at 0.3 to 3 uM pre-treated for 1 hr followed by stimulated with MSA-2 measured after 4 hrs by real-time PCR analysis; assay type: cell-based; conditions: dose 0.3-3 µM, time 5.0 hrs
[9] = biological target: Stimulator of interferon genes protein (Homo sapiens) (UniProt Q86WV6); assay: Inhibition of STING downstream signalling in human THP1-Dual cells assessed as inhibition of MSA-2 induced IP-10 mRNA expression at 0.3 to 3 uM pre-treated for 1 hr followed by stimulated with MSA-2 measured after 4 hrs by real-time PCR analysis; assay type: cell-based; conditions: dose 0.3-3 µM, time 5.0 hrs
[10] = biological target: Stimulator of interferon genes protein (Homo sapiens) (UniProt Q86WV6); assay: Inhibition of STING downstream signalling in human THP1-Dual cells assessed as inhibition of cGAMP induced IFN-beta mRNA expression at 0.3 to 3 uM pre-treated for 1 hr followed by stimulated with cGAMP measured after 4 hrs by real-time PCR analysis; assay type: cell-based; conditions: dose 0.3-3 µM, time 5.0 hrs
[11] = biological target: Stimulator of interferon genes protein (Homo sapiens) (UniProt Q86WV6); assay: Inhibition of STING downstream signalling in human THP1-Dual cells assessed as inhibition of HT-DNA induced IP-10 mRNA expression at 0.3 to 3 uM pre-treated for 1 hr followed by stimulated with HT-DNA measured after 4 hrs by real-time PCR analysis; assay type: cell-based; conditions: dose 0.3-3 µM, time 5.0 hrs
[12] = biological target: Stimulator of interferon genes protein (Homo sapiens) (UniProt Q86WV6); assay: Inhibition of STING downstream signalling in human THP1-Dual cells assessed as inhibition of HT-DNA induced ISG15 mRNA expression at 0.3 to 3 uM pre-treated for 1 hr followed by stimulated with HT-DNA measured after 4 hrs by real-time PCR analysis; assay type: cell-based; conditions: dose 0.3-3 µM, time 5.0 hrs
[13] = biological target: Stimulator of interferon genes protein (Homo sapiens) (UniProt Q86WV6); assay: Inhibition of STING downstream signalling in human THP1-Dual cells assessed as inhibition of HT-DNA induced ISG56 mRNA expression at 0.3 to 3 uM pre-treated for 1 hr followed by stimulated with HT-DNA measured after 4 hrs by real-time PCR analysis; assay type: cell-based; conditions: dose 0.3-3 µM, time 5.0 hrs
[14] = biological target: Stimulator of interferon genes protein (Homo sapiens) (UniProt Q86WV6); assay: Inhibition of STING downstream signalling in human THP1-Dual cells assessed as inhibition of HT-DNA induced TNF-alpha mRNA expression at 0.3 to 3 uM pre-treated for 1 hr followed by stimulated with HT-DNA measured after 4 hrs by real-time PCR analysis; assay type: cell-based; conditions: dose 0.3-3 µM, time 5.0 hrs
[15] = biological target: Stimulator of interferon genes protein (Homo sapiens) (UniProt Q86WV6); assay: Inhibition of human wild type STING (R232) expressed in human 293-Dual hSTING-R232 cells assessed as inhibition of secreted luciferase reporter of interferon stimulated gene (ISG) measured after 24 hrs incubation; assay type: cell-based
[16] = biological target: Stimulator of interferon genes protein (Homo sapiens) (UniProt Q86WV6); assay: Inhibition of human wild type STING (R232) expressed in human 293-Dual hSTING-R232 cells assessed as reduction in cGAMP-induced IL-6 expression; assay type: cell-based
[17] = biological target: T2, Stimulator of interferon genes protein (Mus musculus) (UniProt Q3TBT3); assay: Inhibition of STING downstream signalling in mouse RAW264.7 cells assessed as inhibition of […] induced IP-10 secretion level at 0.3 to 3 uM pre-treated for 1 hr followed by stimulated with […] measured after 24 hrs by ELISA; assay type: cell-based; conditions: dose 0.3-3 µM, time 25.0 hrs
T2 sequence (whole entry): T1 sequence (Q3TBT3 whole entry)

[18] = biological target: T2, Stimulator of interferon genes protein (Mus musculus); assay: Inhibition of STING downstream signalling in mouse RAW264.7 cells assessed as inhibition of […] induced Cxcl-10 mRNA level pre-treated for 1 hr followed by stimulated with […] measured after 4 hrs by real-time PCR analysis; assay type: cell-based; conditions: dose 0.3-3 µM, time 5.0 hrs
[19] = biological target: T2, Stimulator of interferon genes protein (Mus musculus); assay: Inhibition of STING downstream signalling in mouse BMDM cells assessed as inhibition of MSA-2 induced Ccl5 mRNA level pre-treated for 1 hr followed by stimulated with MSA-2 measured after 4 hrs by real-time PCR analysis; assay type: cell-based; conditions: dose 0.3-3 µM, time 5.0 hrs
Mus musculus [20] = assay: Anti-inflammatory activity against MSA-2 induced C57BL/6 mouse inflammation model assessed as inhibition of MSA-2 induced Cxcl-10 mRNA expression in kidney at 10 mg/kg, ip pre-treated for 1 hr followed by stimulated with MSA-2 for 4 hrs by real-time PCR analysis; assay type: functional, organism-based; conditions: time 5.0 hrs
Mus musculus [21] = assay: Anti-inflammatory activity against Cisplatin induced C57BL/6 mouse kidney inflammation model assessed as suppression of Cisplatin induced Isg56 mRNA level in kidney at 5 mg/kg, ip treated for 3 days by real-time PCR analysis; assay type: functional, organism-based; conditions: time 3.0 day
Mus musculus [22] = assay: Anti-inflammatory activity against Cisplatin induced C57BL/6 mouse kidney inflammation model assessed as suppression of Cisplatin induced Cxcl-10 mRNA level in kidney at 5 mg/kg, ip treated for 3 days by real-time PCR analysis; assay type: functional, organism-based; conditions: time 3.0 day
HEK293 = assay: Protection of Cisplatin induced apoptosis in human HEK293 cells assessed as apoptotic cells at 10 uM measured after 72 hrs by flow cytometry; assay type: functional, cell-based
Mus musculus [23] = assay: Effect on Ifn-beta expression in Cisplatin induced C57BL/6 STING-KO mouse kidney inflammation model at 5 mg/kg, ip treated for 3 days by real-time PCR analysis; assay type: functional, organism-based; conditions: time 3.0 day
Mus musculus [24] = assay: Prevention of body weight loss in Cisplatin induced C57BL/6 mouse kidney inflammation model at 5 mg/kg, ip treated for 3 days; assay type: functional, organism-based; conditions: time 3.0 day
Mus musculus [25] = assay: Anti-inflammatory activity in TREX1 D18N mouse model assessed as reduction in Cxcl10 mRNA expression in heart at 10 mg/kg, ip measured after 2 weeks; assay type: functional, organism-based

With `N#CC/C=C/c1ccc2[nH]cc(NC(=O)Nc3ccc4c(c3)OC(F)(F)O4)c2c1` the IC50 [1] was 96.3 nM, the half-life [2] was 38.5 min and the microsomal CLint [3] was 52 µL/min/mg. For the same molecule, the microsomal CLint [4] was 36 µL/min/mg, the CLH [5] was 36.9 µL/min/mg and the Activity [6] was “inactive”. The inhibition [7] was “Dose-dependent-effect”, the inhibition [8] was “Active” and the inhibition [9] was “Active”. The inhibition [10] was “Active”, the inhibition [11] was “Active” and the inhibition [12] was “Active”. The inhibition [13] was “Active”, the inhibition [14] was “Active” and the inhibition [15] was “Active”. For the same molecule, the inhibition [16] was “Active”, the inhibition [17] was “Active” and the inhibition [18] was “Dose-dependent-effect”. For the same molecule, the inhibition [19] was “Dose-dependent-effect”, the inhibition (Mus musculus [20]) was “Active” and the inhibition (Mus musculus [21]) was “Active”. The inhibition (Mus musculus [22]) was “Active”, the Activity (HEK293) was “Active” and the Activity (Mus musculus [23]) was “inactive”. For the same molecule, the Activity (Mus musculus [24]) was “inactive” and the Activity (Mus musculus [25]) was “Active”.
